≈ marks a conversion by molar mass, not a printed value.
Columns and labels:
[1] = target: T1, purified human PRX3 (Homo sapiens, UniProt P30048); test: Biochemical PRX3 Inhibition Assay (non-reducible crosslink by SDS PAGE + single adduct by MALDI-TOF MS); details: 100 μM PRX3 with TRX2/thioredoxin reductase/NADPH system and hydrogen peroxide, 1-2 hr at 37° C.
T1 construct: made in house
T1 sequence (P30048 62-256): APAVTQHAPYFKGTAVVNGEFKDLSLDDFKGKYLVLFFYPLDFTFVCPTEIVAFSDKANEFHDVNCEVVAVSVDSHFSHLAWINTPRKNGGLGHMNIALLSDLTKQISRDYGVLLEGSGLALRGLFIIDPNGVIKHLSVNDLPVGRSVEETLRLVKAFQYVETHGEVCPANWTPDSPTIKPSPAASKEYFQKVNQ
Summary of the method: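 Purified human PRX3 (100 µM) cycled with TRX2, thioredoxin reductase, NADPH regenerating system and H2O2, incubated with compound 1–2 h at 37 °C. Non-reducible crosslink quantified by densitometry of SDS-PAGE (~46 vs ~23 kDa) after DTT; single-adduct fraction from MALDI-TOF MS peak intensities, background-corrected against DMSO.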

[2] = Solubility Assay (HPLC); assay type: physicochemical; details: HEPES/NaCl buffer, aqueous with cosolvent or surfactant or cyclodextrin, kinetic from dmso stock; 20 mM HEPES, 100 mM NaCl, pH 7.5, 18-24 hours at ambient temperature; read-out: Solubility
Summary of the method: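 Compound from 20 mM DMSO stock added to 20 mM HEPES, 100 mM NaCl, pH 7.5, rotated 18-24 h at ambient temperature, then centrifuged 10 min at 20,000×g to remove solids. Supernatant diluted in DMSO and quantified by HPLC peak area against the closest of 200 μM and 20 μM standards, corrected for dilution.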

[3] = tested on: human SK—OV-3 ovarian cancer cells; test: Cellular Activity Assay (cytotoxicity, crystal violet); assay type: cell-based; details: SK—OV-3 cells, treated for 48 hr, 0.1-100 μM, crystal violet absorbance at 540 nm
Summary of the method: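 SK-OV-3 cells plated, allowed 24 h recovery, then treated 48 hr with compound at 0.1-100 μM. Live cells were fixed (3.0% formaldehyde), stained with 0.1% crystal violet and read at 540 nm. EC50 was fitted after normalizing to matched-DMSO controls.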

[4] = tested on: Enterococcus hirae (ATCC #10541); test: Antimicrobial Activity Assay (MIC / growth inhibition); assay type: cell-based; details: ATCC10541; Enterococcus hirae; analogs tested at 20 μM final concentration
Protocol: The overnight growth was then diluted into growth media to make a single solution of E. hirae with a final optical density at 600 nm=0.02 AU. A 20 mM stock solution of Thiostrepton in DMSO was made and used to make multiple dilutions of TS in DMSO. Each TS dilution (0.1 mL) was then added to a test tube containing 10 mL of the diluted E. hirae and grown at 37° C. overnight while shaking at 180 rpm. The next morning, each tube was visually inspected to determine if the cells grew. Final concentrations tested were 0.120, 0.090, 0.075, 0.060, 0.045, 0.030, and 0.015 μM TS. […] Three replicates were made on three separate days (n=9). […] For TS analogs, the dilute E. hirae was treated with 20 μM final concentration of each analog (three replicates each). […] DMSO was used as a positive control (complete cell growth) and 20 μM thiostrepton was used as a negative control.

Row | SMILES | PRX3 Inhibition (Crosslink + Mono-adduct) [1] | solubility [2] | MIC [4] | EC50 ([3]; Homo sapiens) | EC50 ([3]; Homo sapiens, SK-OV-3, 48 h) | EC50 [3]
1 | C=C(NC(=O)c1csc(N2CCC(NC(=O)OC(C)(C)C)CC2)n1)C(=O)NC(=C)C(=O)OC [Compound 12, Methyl 2-(2-(2-(4-((tert-butoxycarbonyl)amino)piperidin-1-yl)thiazole-4-carboxamido)acrylamido)acrylate] | +++ (>90%) | < 100 µM | > 20 µM | 1 to 10 µM |  | 
2 | C=C(NC(=O)c1csc(N2CCC(NC(=O)CCCCCN=[N+]=[N-])CC2)n1)C(=O)NC(=C)C(=O)OC [Compound 19, Methyl 2-(2-(2-(4-(6-azidohexanamido)piperidin-1-yl)thiazole-4-carboxamido)acrylamido)acrylate] | +++ (>90%) | < 100 µM | > 20 µM | 1 to 10 µM |  | 
3 | C=C(NC(=O)c1csc(N2CCC(COC(=O)NCCCOC)CC2)n1)C(=O)NC(=C)C(=O)OC [Compound 32, Methyl 2-(2-(2-(4-((((3-methoxypropyl)carbamoyl)oxy)methyl)piperidin-1-yl)thiazole-4-carboxamido)acrylamido)acrylate] | ++ (50-90%) | 100 to 1000 µM (≈ 51 to 510 µg/mL) | > 20 µM | 25 to 100 µM |  | 
4 | C=C(NC(=O)c1csc(-c2ccc(NC(=O)OC(C)(C)C)nc2)n1)C(=O)NC(=C)C(=O)OC [Compound 2, Methyl 2-(2-(2-(6-((tert-butoxycarbonyl)amino)pyridine-3-yl)thiazole-4-carboxamido)acrylamido acrylate] | ++ (50-90%) | < 100 µM | > 20 µM |  | 1 to 10 µM | 
5 | C=C(NC(=O)c1csc(N2CCC(C(=O)NCCCOC(C)C)CC2)n1)C(=O)NC(=C)C(=O)OC [Compound 29, Methyl 2-(2-(2-(4-((3-isopropoxypropyl)carbamoyl)piperidin-1-yl)thiazole-4-carboxamido)acrylamido)acrylate] | +++ (>90%) | 100 to 1000 µM (≈ 50.8 to 508 µg/mL) | > 20 µM | 1 to 10 µM |  | 
6 | C=C(NC(=O)c1csc(-c2ccc(CNC(=O)CCCCCNC(=O)OC(C)(C)C)cc2)n1)C(=O)NC(=C)C(=O)OC [Compound 16, Methyl 2-(2-(2-(4-((6-((tert-butoxycarbonyl)amino)hexanamido)methyl)phenyl)thiazole-4-carboxamido)acrylamido)acrylate] | +++ (>90%) | < 100 µM | > 20 µM |  |  | 10 to 25 µM
7 | C=C(NC(=O)c1csc(N2CCOCC2)n1)C(=O)NC(=C)C(=O)OC [Compound 17, Methyl 2-(2-(2-morpholinothiazole-4-carboxamido)acrylamido)acrylate] | +++ (>90%) | 100 to 1000 µM (≈ 36.6 to 366 µg/mL) | > 20 µM | 10 to 25 µM |  | 
8 | C=C(NC(=O)c1csc(N2CCN(C(=O)OC(C)(C)C)CC2)n1)C(=O)NC(=C)C(=O)OC [Compound 18, Tert-butyl 4-(4-((3-((3-methoxy-3-oxoprop-1-en-2-yl)amino)-3-oxoprop-1-en-2-yl)carbamoyl)thiazol-2-yl)piperazine-1-carboxylate] | + (5-50%) | 100 to 1000 µM (≈ 46.6 to 466 µg/mL) | > 20 µM | 25 to 100 µM |  | 
9 | C=C(NC(=O)c1csc(N2CCC[C@H](NC(=O)OC(C)(C)C)C2)n1)C(=O)NC(=C)C(=O)OC [Compound 20, Methyl (S)-2-(2-(2-(3-((tert-butoxycarbonyl)amino)piperidin-1-yl)thiazole-4-carboxamido)acrylamido)acrylate] | +++ (>90%) | < 100 µM | > 20 µM | 1 to 10 µM |  | 
10 | C=C(NC(=O)c1csc(N2CCC(N(C)C(=O)OCC)CC2)n1)C(=O)NC(=C)C(=O)OC [Compound 21, Methyl 2-(2-(2-(4-((ethoxycarbonyl)(methyl)amino)piperidin-1-yl)thiazole-4-carboxamido)acrylamido)acrylate] | +++ (>90%) | < 100 µM | > 20 µM | 1 to 10 µM |  | 
11 | C=C(NC(=O)c1csc(N2CCC[C@@H](NC(=O)OCCOC)C2)n1)C(=O)NC(=C)C(=O)OC [Compound 31, Methyl (R)-2-(2-(2-(3-(((2-methoxyethoxy)carbonyl)amino)piperidin-1-yl)thiazole-4-carboxamido)acrylamido)acrylate] | + (5-50%) | > 1000 µM | > 20 µM | 25 to 100 µM |  | 
12 | C=C(NC(=O)c1csc(N2CCC[C@@H](NC(=O)OC(C)(C)C)C2)n1)C(=O)NC(=C)C(=O)OC [Compound 11, Methyl (R)-2-(2-(2-(3-((tert-butoxycarbonyl)amino)piperidin-1-yl)thiazole-4-carboxamido)acrylamido)acrylate] | +++ (>90%) | < 100 µM | > 20 µM | 1 to 10 µM |  | 
13 | C=C(NC(=O)c1csc(-c2ccc(NC(=O)OC(C)(C)C)cc2)n1)C(=O)NC(=C)C(=O)OC [Compound 5, Methyl 2-(2-(2-(4-((tert-butoxycarbonyl)amino)phenyl)thiazole-4-carboxamido)acrylamido)acrylate] | +++ (>90%) | < 100 µM | > 20 µM | 1 to 10 µM |  | 

More lines, main results first:

Row | PRX3 Inhibition (Crosslink + Mono-adduct) [1] | solubility [2] | MIC [4] | SMILES | EC50 ([3]; Homo sapiens) | EC50 ([3]; Homo sapiens, SK-OV-3, 48 h) | EC50 [3]
14 | +++ (>90%) | < 100 µM | > 20 µM | C=C(NC(=O)c1csc(-c2ccc(C(=O)NCCOC)cc2)n1)C(=O)NC(=C)C(=O)OC [Compound 10, Methyl 2-(2-(2-(4-((2-methoxyethyl)carbamoyl)phenyl)thiazole-4-carboxamido)acrylamido)acrylate] | 1 to 10 µM |  | 
15 | ++ (50-90%) | < 100 µM | > 20 µM | C=C(NC(=O)c1csc(-c2ccc(OCCOC)cc2)n1)C(=O)NC(=C)C(=O)OC [Compound 24, Methyl 2-(2-(2-(4-(2-methoxyethoxy)phenyl)thiazole-4-carboxamido)acrylamido)acrylate] | 1 to 10 µM |  | 
16 | +++ (>90%) | > 1000 µM | > 20 µM | C=C(NC(=O)c1csc(N2CCC(NC(=O)OCCOC)CC2)n1)C(=O)NC(=C)C(=O)OC [Compound 33, Methyl 2-(2-(2-(4-(((2-methoxyethoxy)carbonyl)amino)piperidin-1-yl)thiazole-4-carboxamido)acrylamido)acrylate] | 25 to 100 µM |  | 
17 | ++ (50-90%) | < 100 µM | > 20 µM | C=C(NC(=O)c1csc(-c2ccc(NC(=O)CCCCCBr)cc2)n1)C(=O)NC(=C)C(=O)OC [Compound 4, Methyl 2-(2-(2-(4-(6-bromohexanamido)phenyl)thiazole-4-carboxamido)acrylamido)acrylate] | 1 to 10 µM |  | 
18 | +++ (>90%) | > 1000 µM | > 20 µM | C=C(NC(=O)c1csc(N2CCC(NC(=O)COCCOC)CC2)n1)C(=O)NC(=C)C(=O)OC [Compound 34, Methyl 2-(2-(2-(4-(2-(2-methoxyethoxy)acetamido)piperidin-1-yl)thiazole-4-carboxamido)acrylamido)acrylate] | 1 to 10 µM |  | 
19 | +++ (>90%) | < 100 µM | > 20 µM | C=C(NC(=O)c1csc(N2CCC(CNC(=O)OCC)CC2)n1)C(=O)NC(=C)C(=O)OC [Compound 22, Methyl 2-(2-(2-(4-(((ethoxycarbonyl)amino)methyl)piperidin-1-yl)thiazole-4-carboxamido)acrylamido)acrylate] | 1 to 10 µM |  | 
20 | +++ (>90%) | < 100 µM | > 20 µM | C=C(NC(=O)c1csc(-c2cccc(C(=O)OC(C)(C)C)c2)n1)C(=O)NC(=C)C(=O)OC [Compound 14, Tert-butyl 3-(4-((3-((3-methoxy-3-oxoprop-1-en-2-yl)amino)-3-oxoprop-1-en-2-yl)carbamoyl)thiazol-2-yl)benzoate] | 25 to 100 µM |  | 
